From patent US20180353512A1, “COMBINATION THERAPIES FOR TREATING B-CELL MALIGNANCIES” (GILEAD SCIENCES, INC., priority 2015, published 2018)
Read-outs that look alike come from different tables or passages of the source.

Assays:
Type in all cases: cell-based
TMD8 = assay: CellTiter-Glo viability assay at 96 h (Example 5); conditions: Homo sapiens
Experimental: (§1) Growth inhibition to Idelalisib or other inhibitors was assessed using CellTiter-Glo viability assay at 96 h. […] Cell lines were analyzed by whole exome sequencing, RNASeq, and phosphoproteomics. Protein expression was measured using Simple Western and SDS/PAGE and western blot. Caspase 3/7 was measured using Caspase-Glo 3/7 assay; apoptosis was measured with Annexin V assay and propidium iodide by flow cytometry.
(§2) Cell viability EC50 was determined using a sigmoidal dose-response (variable slope) curve generated from quadruplicate samples. Statistical significance was determined using the student's t-test for cell viability and two-tailed paired t-test for apoptosis experiments in Prism (GraphPad).

[1] = test system: TMD8^R (Idelalisib-resistant line); assay: CellTiter-Glo viability assay at 96 h; conditions: read-out: EC50, cell viability
Experimental: as §1, §2
(§3) Idelalisib-resistant (TMD8^R) cell line and passage-matched Idelalisib-sensitive (TMD8^S) cell line were generated according to the procedure described in Example 5 above. To characterize the resistant cells, cell viability assays, RNASeq of multidrug resistance (MDR) family of ABC transporter genes (N=33), apoptosis assays, and phosphoprotein analysis were performed. Cell viability was measured using CellTiter-Glo, as described in Example 1A above. Western blot and protein level analysis were performed after treatment with 420 nM idelalisib, 320 nM Compound B and combination thereof, using Peggy Sue (ProteinSimple) automated Western Blot system. Protein concentration (pg/μL) was quantitated using recombinant protein standards. Normalized AUC were determined for each of the treatment groups, normalized to actin. Apoptosis was assessed by propidium iodide and Annexin V/FITC staining and measured by flow cytometry, as described in Example 1A above. Western Blot with anti-p-AKT (S473) antibody and Peggy Sue were used to determine the phosphorylation state of downstream signaling components.

TMD8^R cells = assay: Apoptosis, Annexin V assay and propidium iodide by flow cytometry; conditions: Annexin V at 48 h, Idelalisib=1 μM
Experimental: as §1

FSCCL^S = assay: CellTiter Glo viability assay after 96 h; conditions: read-out: EC50
Experimental: (§4) Idelalisib resistance was established by continuous passaging of a clonal isolate of WSU-FSCCL in the presence of 1 μM idelalisib; clonal isolates from a passage-matched line (FSCCL^S) and idelalisib-resistant line (FSCCL^R) were generated through 2 rounds of single-cell-limiting dilution. Growth inhibition to idelalisib or other inhibitors was performed after 96 h using CellTiter Glo viability assay. Characterization of mutations and gene expression were identified by whole exome sequencing and RNA-Seq, respectively. Whole cell lysates were analyzed by western blots.

FSCCL^R SFK^HIGH = assay: CellTiter Glo viability assay after 96 h
Experimental: as §4

[2] = test system: TMD8^S (DMSO passage matched, idelalisib-sensitive line); assay: CellTiter-Glo viability assay at 96 h; conditions: read-out: EC50, cell viability
Experimental: as §1, §2, §3

OCI-LY10 cells = assay: CellTiter-Glo cell viability assay, four days (Example 1A); conditions: OCI-LY10; single agent
Experimental: (§5) In vitro anti-proliferative activity of agents was assessed using CellTiter-Glo™ Assay (Promega), which quantifies cellular ATP level. Test compounds were dissolved in DMSO to prepare 10 mM stock solutions. […] For drug combination studies, a two or three fold horizontal serial dilution pattern was used for Compound B and combined with Idelalisib using a two, three, or four fold vertical serial dilution pattern. […] The final DMSO concentration in the test media was 0.2%. Each combination used replicates of four plates to generate sufficient data for evaluation of synergy scores. […] The assay growth medium for all lines was RPMI supplemented with 20% FBS and […] penicillin-streptomycin. Seeding density was optimized for growth rate over 96 hours for each cell line and was between 10,000-30,000 cells per well of 96 well plates. After four days incubation with agents at 37° C./5% CO2, the CellTiter-Glo™ assay was performed following the manufacturer's protocol. Relative luminescence units were quantified using a Biotek Synergy luminometer.
(§6) Data from a plate was excluded if either Z′<0.5 or the growth of the cell lines was less than one doubling in the four day assay period. Z′ was calculated using the formula: Z′=[1−((3(σstau+σDMSO))/(|μDMSO−μstau|)] where σstau and σDMSO are the standard deviation of the 100% inhibited staurosporine and 0% inhibited DMSO control wells, respectively. μDMSO and μstau are the mean of the […] control wells, respectively. The raw Cell Titer Glo signal was normalized according to the following formula: [(raw value)−(100% inhibited staurosporine control)]/[(DMSO control value)−(100% inhibited staurosporine control)].
(§7) EC50 was determined using GraphPad Prism or Dose Response software by fitting the data to a four parameters variable slope model. […] For combination studies, the EC50 at each test article concentration was determined from graphs of the EC50 of one compound at a fixed dose of second compound. The EC50 shift was calculated by taking the ratio of the EC50 of the single agent by the EC50 at the maximum dose of the second agent.
(§8) Synergy was analyzed using the MacSynergy II program, which calculates a theoretical additive value for the drug combination that is based on the values generated by each drug alone using the Bliss Independence mathematical model. The Bliss independence model assumes that each drug acts independently. The theoretical additive effect for each compound is calculated and then subtracted from the actual effect. Synergy is defined by greater than expected effects while antagonism is defined by less than expected effects. In this example, a synergy volume greater than 50 was considered significant. The EC50 values determined in drug combination studies represent a single experiment run in quadruplicate and therefore may differ slightly from the single agent EC50 values.

TMD-8 cells = assay: as above; conditions: TMD-8; single agent
Experimental: as §5, §6, §7, §8

Ri-1 cells = assay: as above; conditions: Ri-1; single agent
Experimental: as §5, §6, §7, §8

FSCCL (WSU-FSCCL) = assay: CellTiter Glo viability assay after 96 h; conditions: read-out: EC50, cell viability
Experimental: as §4

[3] = test system: FSCCL^R clone 1 (PI3KCA E970K); assay: CellTiter Glo viability assay after 96 h
Experimental: as §4

[4] = test system: FSCCL^R clone 2 (PI3KCA N345K); assay: CellTiter Glo viability assay after 96 h
Experimental: as §4

[5] = test system: FSCCL^R clone 3 (PI3KCA P539R); assay: CellTiter Glo viability assay after 96 h
Experimental: as §4

[6] = FIGS. 11A, 13A, printed with 1 μM of each named agent
[7] = read-out: EC50 BYL-719 (+IDELA 0.6 μm)

Compound `CS(=O)(=O)N1CCN(Cc2cc3nc(-c4cccc5[nH]ncc45)nc(N4CCOCC4)c3s2)CC1` [GDC-0941] has an EC50 (TMD8) of 27 nM.

`CNc1nc(-c2ccc3c(N)n[nH]c3c2)cc(N2C[C@@H](C(=O)NC3CCCCC3)CC[C@H]2C)n1` [GSK-2334470] was tested, and the EC50 [1, 6] was < 10000 nM and the apoptosis (TMD8^R cells; GSK-2334470=1 μM, vehicle control 22%) was 21%.

With `c1cn2cc(-c3ccc4cn[nH]c4c3)nc(Nc3ccc(N4CCOCC4)cc3)c2n1` [ENTO] the EC50 (FSCCL^S; Table 15, single agent) was 1800 nM and the EC50 (FSCCL^R SFK^HIGH; read-out: EC50 ENTO (+IDELA 600 nM)) was 1920 nM.

`Cc1nc(Nc2ncc(C(=O)Nc3c(C)cccc3Cl)s2)cc(N2CCN(CCO)CC2)n1` [Dasatinib] gave an EC50 (FSCCL^S; Table 14, single agent) of 34 nM, an EC50 (FSCCL^R SFK^HIGH; read-out: EC50 Dasatinib (+IDELA 600 nM)) of 15 nM and an EC50 (FSCCL^R SFK^HIGH; single agent, read-out: EC50 Dasatinib) of 58 nM.

`C=CC(=O)N1CCC[C@@H](n2nc(-c3ccc(Oc4ccccc4)cc3)c3c(N)ncnc32)C1` [Ibrutinib, 1-[(3R)-3-[4-Amino-3-(4-phenoxyphenyl)-1H-pyrazolo[3,4-d]pyrimidin-1-yl]piperidin-1-yl]prop-2-en-1-one] was tested, and the EC50 ([2]; unit inferred) was 0.5 nM, the “growth of cell line” value (OCI-LY10 cells) was “inhibited the growth” and the “growth of cell line” value (TMD-8 cells) was “inhibited the growth”. The “growth of cell line” value (Ri-1 cells) was “inhibited the growth”.

In the case of `Cc1cc([C@@H](C)Nc2ccccc2C(=O)O)c2nc(N3CCOCC3)cc(=O)n2c1` [AZD-6482], the EC50 (FSCCL (WSU-FSCCL)) is reported as 4600 nM and the EC50 (TMD8) is reported as 520 nM.

`Cc1nc(NC(=O)N2CCC[C@H]2C(N)=O)sc1-c1ccnc(C(C)(C)C(F)(F)F)c1` [BYL-719] showed an EC50 [3, 7] of 123 nM, an EC50 ([3]; single agent, read-out: EC50) of 2120 nM and an EC50 [4, 7] of 143 nM. The EC50 ([4]; single agent, read-out: EC50) was 1540 nM, the EC50 (FSCCL^S; PI3KCA WT, Table 13, single agent) was 1610 nM and the EC50 [5, 7] was 239 nM. For the same compound, the EC50 ([5]; single agent, read-out: EC50) was > 3000 nM, the EC50 (FSCCL (WSU-FSCCL)) was > 10000 nM and the EC50 (TMD8) was 1200 nM.

In the case of `NC1(c2ccc(-c3nc4ccn5c(=O)[nH]nc5c4cc3-c3ccccc3)cc2)CCC1` [MK-2206], the EC50 [1, 6] is reported as < 10000 nM and the apoptosis (TMD8^R cells; MK-2206=1 μM, vehicle control 24%) is reported as 33%.

With `C[C@H](Nc1nc[nH]c2ncnc1-2)c1cc2cccc(Cl)c2c(=O)n1-c1ccccc1` [Duvelisib, 8-Chloro-2-phenyl-3-[(1S)-1-(3H-purin-6-ylamino)ethyl]-1(2H)-isoquinolinone] the EC50 ([1]; TMD8^R, single agent) was > 4000 nM and the EC50 ([2]; single agent) was 580 nM.
